Experimental findings from publication PMC9234962, “Optimization of Peptide Linker-Based Fluorescent Ligands for the Histamine H1 Receptor” (Journal of Medicinal Chemistry, 2022) are described below.

As a reminder, the Kd is the free concentration of one partner at which half of the binding sites on the other are occupied at equilibrium, for simple one-to-one binding. A lower Kd goes with tighter binding. As a reminder, the pKD is the negative decadic logarithm of the KD, by convention in mol/L.

The target in one assay is T1, human H1R (Homo sapiens, UniProt P35367).
T1 construct: expressed in transfected cells; host or cells: CHO cells
T1 sequence (P35367 whole entry): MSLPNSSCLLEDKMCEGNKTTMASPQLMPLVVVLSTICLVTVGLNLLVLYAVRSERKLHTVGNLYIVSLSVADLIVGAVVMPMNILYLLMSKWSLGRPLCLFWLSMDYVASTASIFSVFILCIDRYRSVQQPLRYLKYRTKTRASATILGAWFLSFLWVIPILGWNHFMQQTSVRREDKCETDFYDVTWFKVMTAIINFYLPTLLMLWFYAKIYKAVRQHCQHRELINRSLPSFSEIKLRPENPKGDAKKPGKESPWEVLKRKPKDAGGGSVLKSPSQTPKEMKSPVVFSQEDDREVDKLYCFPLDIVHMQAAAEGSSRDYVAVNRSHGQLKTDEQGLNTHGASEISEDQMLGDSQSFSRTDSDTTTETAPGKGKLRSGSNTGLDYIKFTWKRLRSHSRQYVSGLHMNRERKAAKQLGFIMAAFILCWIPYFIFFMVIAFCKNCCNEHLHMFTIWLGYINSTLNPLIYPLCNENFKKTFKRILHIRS
Put plainly: Ca2+ mobilization assay on human H1R-expressing CHO cells. Type of assay: cell-based. The conditions noted are these: Gaddum equation, shift in histamine EC25 with 1 μM antagonist; mean ± SEM, four experiments; read-out: pKB (converted). The method, then: CHO cells expressing H1R were grown to confluence in black-walled, clear-bottom 96-well plates. On the day of the experiment, media were replaced with 100 μL of HBSS containing […], 2.3 μM Fluo-4AM (Invitrogen), 0.023% Pluronic F-127, 0.5 mM Brilliant Black BN, and 1 μM required fluorescent ligand and the plates incubated for 1 h at 37 °C in the dark. The plates were then placed in the multi-well fluorometric imaging plate reader FlexStation3 (Molecular Devices, Sunnyvale, CA) and HBSS only or HBSS containing the required concentration of histamine was added after 15 s. Fluo-4 fluorescence was measured at 520 nm (excitation at 485 nm) every 1.52 s for 200 s. For each well, the peak maximum–minimum–maximum change in fluorescence value was taken and plotted against concentration of histamine to give a dose–response curve.
Estimated affinity values (pKB) were calculated from the shift in agonist concentration–response curves in the presence of the fluorescent antagonists using the Gaddum equation (7): [drawing 10] 7 where DR (dose ratio) is the ratio of the agonist concentration required to stimulate an identical response in the presence and absence of antagonist, [B]. DR was determined from the EC25 value as there was a decrease in observed maximal efficacy of histamine in the presence of all 10 fluorescent antagonists.

The next assay concerns the target Nluc-H1R (Homo sapiens, UniProt P35367). Put plainly: NanoBRET saturation binding assay on Nluc-H1R expressing HEK293T cells. Details: expressed in transfected cells. The conditions noted are these: saturation binding curves, whole HEK293T cells; for pKD: non-specific with 10 μM mepyramine, mean ± SEM. From the text: Total and non-specific saturation binding curves from NanoBRET saturation binding assay were fitted simultaneously using eq 1: [drawing 4] 1 where Bmax is the maximal specific binding, [B] is the concentration of fluorescent ligand in nM, KD is the equilibrium dissociation constant in nM, M is the slope of the non-specific component, and C is the intercept with the Y axis.
On the technique in general: In BRET a luciferase serves as donor, and the signal depends on an acceptor being close.

Molecules are shown by their SMILES. Square brackets hold non-standard residues; d marks the D form. Side chains are listed from the residue outwards. Peptide text beside a SMILES is read from it. * marks the point of attachment. X1 = O=C(COc1ccc(/C=C/C2=[N+]3C(=Cc4ccc(-c5cccs5)n4[B-]3(F)F)C=C2)cc1)*; Propanoyl(3-Pip(4-O-2-BnPh)) = O=C(CCN1CCC(Oc2ccccc2Cc2ccccc2)CC1)*; X3 = Cc1cc(C)n2c1C=C1C=CC(/C=C/c3ccc(OCC(=O)*)cc3)=[N+]1[B-]2(F)F; Ahx = NCCCCCC(=O)O; βAla = NCCC(=O)O

Chain of Nluc-H1R (P35367 whole entry): as above

In the case of `Cc1cc(C)n2c1C=C1C=CC(/C=C/c3ccc(OCC(=O)NCCCC[C@H](NC(=O)CCNC(=O)[C@H](CC(N)=O)NC(=O)[C@H](CO)NC(=O)[C@@H](NC(=O)CCN4CCC(Oc5ccccc5Cc5ccccc5)CC4)C(C)C)C(N)=O)cc3)=[N+]1[B-]2(F)F` [Compound 38b, (S)-N^1-(3-(((S)-1-Amino-6-(2-(4-((E)-2-(5,5-difluoro-7,9-dimethyl-5H-5λ^4,6λ^4-dipyrrolo[1,2-c:2’,1’-f][1,3,2]diazaborinin-3-yl)vinyl)phenoxy)acetamido)-1-oxohexan-2-yl)amino)-3-oxopropyl)-2-((S)-2-((S)-2-(3-(4-(2-benzylphenoxy)piperidin-1-yl)propanamido)-3-methylbutanamido)-3-hydroxypropanamido)succinamide] ({Propanoyl(3-Pip(4-O-2-BnPh))}-VSN[βAla]K(X3)-NH2), the Kb on human H1R was 110 nM. For the same compound, at Nluc-H1R, the Kd was 66 nM and the pKD turned out to be 7.18 ± 0.11.
`C[C@H](NC(=O)CCN1CCC(Oc2ccccc2Cc2ccccc2)CC1)C(=O)N[C@@H](C)C(=O)N[C@@H](C)C(=O)NCCC(=O)N[C@@H](CCCn1cc(COc2ccc(/C=C/C3=[N+]4C(=Cc5ccc(-c6cccs6)n5[B-]4(F)F)C=C3)cc2)nn1)C(N)=O` [Compound 28b, (S)-2-((6S,9S,12S)-16-(4-(2-Benzylphenoxy)piperidin-1-yl)-6,9,12-trimethyl-5,8,11,14-tetraoxo-4,7,10,13-tetraazahexadecanamido)-5-(4-((4-((E)-2-(5,5-difluoro-7-(thiophen-2-yl)-5H-5λ^4,6λ^4-dipyrrolo[1,2-c:2’,1’-f][1,3,2]diazaborinin-3-yl)vinyl)phenoxy)methyl)-1H-1,2,3-triazol-1-yl)pentanamide]: on Nluc-H1R, the Kd was 14 nM and the negative-log KD (pKD) is on record as 7.86 ± 0.06.
For the compound `CC(C)[C@H](NC(=O)CCN1CCC(Oc2ccccc2Cc2ccccc2)CC1)C(=O)N[C@@H](CO)C(=O)N[C@@H](Cc1ccc(O)cc1)C(=O)NCCC(=O)N[C@@H](CCCCNC(=O)COc1ccc(/C=C/C2=[N+]3C(=Cc4ccc(-c5cccs5)n4[B-]3(F)F)C=C2)cc1)C(N)=O` [Compound 31e, (S)-2-((6S,9S,12S)-16-(4-(2-Benzylphenoxy)piperidin-1-yl)-6-(4-hydroxybenzyl)-9-(hydroxymethyl)-12-isopropyl-5,8,11,14-tetraoxo-4,7,10,13-tetraazahexadecanamido)-6-(2-(4-((E)-2-(5,5-difluoro-7-(thiophen-2-yl)-5H-5λ^4,6λ^4-dipyrrolo[1,2-c:2’,1’-f][1,3,2]diazaborinin-3-yl)vinyl)phenoxy)acetamido)hexanamide] ({Propanoyl(3-Pip(4-O-2-BnPh))}-VSY[βAla]K(X1)-NH2), on Nluc-H1R, binding was put at a Kd of 16 nM and the pKD stood at 7.80 ± 0.11.
For `CC(C)[C@H](NC(=O)CCN1CCC(Oc2ccccc2Cc2ccccc2)CC1)C(=O)N[C@@H](CO)C(=O)N[C@@H](CC(N)=O)C(=O)NCCC(=O)N[C@@H](CCCCNC(=O)CCCCCNC(=O)COc1ccc(/C=C/C2=[N+]3C(=Cc4ccc(-c5cccs5)n4[B-]3(F)F)C=C2)cc1)C(N)=O` [Compound 38a, (S)-N^1-(3-(((S)-1-Amino-6-(6-(2-(4-((E)-2-(5,5-difluoro-7-(thiophen-2-yl)-5H-4λ^4,5λ^4-dipyrrolo[1,2-c:2’,1’-f][1,3,2]diazaborinin-3-yl)vinyl)phenoxy)acetamido)hexanamido)-1-oxohexan-2-yl)amino)-3-oxopropyl)-2-((S)-2-((S)-2-(3-(4-(2-benzylphenoxy)piperidin-1-yl)propanamido)-3-methylbutanamido)-3-hydroxypropanamido)succinamide] ({Propanoyl(3-Pip(4-O-2-BnPh))}-VSN[βAla]K([Ahx-X1])-NH2), in that order: 18 nM and 7.74 ± 0.06.
On the same counts, the results for `CC[C@H](C)[C@H](NC(=O)CCN1CCC(Oc2ccccc2Cc2ccccc2)CC1)C(=O)N[C@@H](CO)C(=O)N[C@@H](CC(N)=O)C(=O)NCCC(=O)N[C@@H](CCCCNC(=O)COc1ccc(/C=C/C2=[N+]3C(=Cc4ccc(-c5cccs5)n4[B-]3(F)F)C=C2)cc1)C(N)=O` [Compound 31i, (S)-N1-(3-(((S)-1-Amino-6-(2-(4-((E)-2-(5,5-difluoro-7-(thiophen-2-yl)-5H-5λ^4,6λ^4-dipyrrolo[1,2-c:2’,1’-f][1,3,2]diazaborinin-3-yl)vinyl)phenoxy)acetamido)-1-oxohexan-2-yl)amino)-3-oxopropyl)-2-((S)-2-((2S,3S)-2-(3-(4-(2-benzylphenoxy)piperidin-1-yl)propanamido)-3-methylpentanamido)-3-hydroxypropanamido)succinamide] ({Propanoyl(3-Pip(4-O-2-BnPh))}-ISN[βAla]K(X1)-NH2) are 5 nM and 8.33 ± 0.09.
On Nluc-H1R, `CC(C)[C@H](NC(=O)CCN1CCC(Oc2ccccc2Cc2ccccc2)CC1)C(=O)N[C@@H](C)C(=O)N[C@@H](CC(N)=O)C(=O)NCCC(=O)N[C@@H](CCCCNC(=O)COc1ccc(/C=C/C2=[N+]3C(=Cc4ccc(-c5cccs5)n4[B-]3(F)F)C=C2)cc1)C(N)=O` [Compound 31b, (S)-N1-(3-(((S)-1-Amino-6-(2-(4-((E)-2-(5,5-difluoro-7-(thiophen-2-yl)-5H-5λ^4,6λ^4-dipyrrolo[1,2-c:2’,1’-f][1,3,2]diazaborinin-3-yl)vinyl)phenoxy)acetamido)-1-oxohexan-2-yl)amino)-3-oxopropyl)-2-((S)-2-((S)-2-(3-(4-(2-benz-ylphenoxy)piperidin-1-yl)propanamido)-3-methylbutanamido)propanamido)succinamide] ({Propanoyl(3-Pip(4-O-2-BnPh))}-VAN[βAla]K(X1)-NH2) showed an equilibrium dissociation constant (Kd) of 5 nM and a pKD of 8.34 ± 0.09.
`C[C@H](NC(=O)[C@@H](NC(=O)CCN1CCC(Oc2ccccc2Cc2ccccc2)CC1)[C@@H](C)O)C(=O)N[C@@H](CC(N)=O)C(=O)NCCC(=O)N[C@@H](CCCCNC(=O)COc1ccc(/C=C/C2=[N+]3C(=Cc4ccc(-c5cccs5)n4[B-]3(F)F)C=C2)cc1)C(N)=O` [Compound 31d, (S)-N1-(3-(((S)-1-Amino-6-(2-(4-((E)-2-(5,5-difluoro-7-(thiophen-2-yl)-5H-5λ^4,6λ^4-dipyrrolo[1,2-c:2’,1’-f][1,3,2]diazaborinin-3-yl)vinyl)phenoxy)acetamido)-1-oxohexan-2-yl)amino)-3-oxopropyl)-2-((S)-2-((2S,3R)-2-(3-(4-(2-benzylphenoxy)piperidin-1-yl)propanamido)-3-hydroxybutanamido)propanamido)succinamide] ({Propanoyl(3-Pip(4-O-2-BnPh))}-TAN[βAla]K(X1)-NH2): on Nluc-H1R, binding was put at a Kd of 5 nM and the pKD turned out to be 8.29 ± 0.07.
For `CC(C)[C@H](NC(=O)CCN1CCC(Oc2ccccc2Cc2ccccc2)CC1)C(=O)N[C@@H](C)C(=O)N[C@@H](Cc1ccc(O)cc1)C(=O)NCCC(=O)N[C@@H](CCCCNC(=O)COc1ccc(/C=C/C2=[N+]3C(=Cc4ccc(-c5cccs5)n4[B-]3(F)F)C=C2)cc1)C(N)=O` [Compound 31f, (S)-2-((6S,9S,12S)-16-(4-(2-Benzylphenoxy)piperidin-1-yl)-6-(4-hydroxybenzyl)-12-isopropyl-9-methyl-5,8,11,14-tetraoxo-4,7,10,13-tetraazahexadecanamido)-6-(2-(4-((E)-2-(5,5-difluoro-7-(thiophen-2-yl)-5H-5λ^4,6λ^4-di-pyrrolo[1,2-c:2’,1’-f][1,3,2]diazaborinin-3-yl)vinyl)phenoxy)acetamido)hexanamide] ({Propanoyl(3-Pip(4-O-2-BnPh))}-VAY[βAla]K(X1)-NH2), in that order: 11 nM and 7.96 ± 0.11.
For `C[C@@H](O)[C@H](NC(=O)CCN1CCC(Oc2ccccc2Cc2ccccc2)CC1)C(=O)N[C@@H](CO)C(=O)N[C@@H](CC(N)=O)C(=O)NCCC(=O)N[C@@H](CCCCNC(=O)COc1ccc(/C=C/C2=[N+]3C(=Cc4ccc(-c5cccs5)n4[B-]3(F)F)C=C2)cc1)C(N)=O` [Compound 31c, (S)-N1-(3-(((S)-1-Amino-6-(2-(4-((E)-2-(5,5-difluoro-7-(thiophen-2-yl)-5H-5λ^4,6λ^4-dipyrrolo[1,2-c:2’,1’-f][1,3,2]diazaborinin-3-yl)vinyl)phenoxy)acetamido)-1-oxohexan-2-yl)amino)-3-oxopropyl)-2-((S)-2-((2S,3R)-2-(3-(4-(2-benzylphenoxy)piperidin-1-yl)propanamido)-3-hydroxy-butanamido)-3-hydroxypropanamido)succinamide] ({Propanoyl(3-Pip(4-O-2-BnPh))}-TSN[βAla]K(X1)-NH2), in that order: 6 nM and 8.20 ± 0.07.
At Nluc-H1R, `C[C@H](NC(=O)CCN(C)CC/C=C1\c2ccccc2COc2ccccc21)C(=O)N[C@@H](C)C(=O)N[C@@H](C)C(=O)NCCC(=O)N[C@@H](CCCn1cc(COc2ccc(/C=C/C3=[N+]4C(=Cc5ccc(-c6cccs6)n5[B-]4(F)F)C=C3)cc2)nn1)C(N)=O` [Compound 28d] showed a Kd of 5 nM and a pKD of 8.27 ± 0.05.
